Columns and labels:
[1] = tested on: p53 in A2780 cells; experiment: p53 ELISA in A2780 cells (capacity to preserve p53); format: cell-based; conditions: lowest dose giving at least 140% of the p53 value of the control, 16 hours
Protocol: The capacity of the compounds to preserve p53 in A2780 cells was measured with the p53 enzyme linked immunosorbent assay. The p53 assay is a “sandwich” enzyme immunoassay employing two polyclonal antibodies. A polyclonal antibody, specific for the p53 protein, has been immobilized onto the surface of the plastic wells. Any p53 present in the sample to be assayed will bind to the capture antibody. The biotinylated detector polyclonal antibody also recognizes p53 protein, and will bind to any p53, which has been retained by the capture antibody. The detector antibody, in turn, is bond by horseradish peroxidase-conjugated streptavidin. The horseradish peroxidase catalyses the conversion of the chromogenic substrate o-phenylene diamine, the intensity of which is proportional to the amount of p53 protein bond to the plate. The colored reaction product is quantified using a spectrophotometer. Quantitation is achieved by the construction of a standard curve using known concentrations of purified recombinant HIS tagged p53 protein (see example C.1.).
A2780 cells (ATCC) were cultivated in RPMI 1640 supplemented with 10% fetal calf serum (FCS), 2 mM L-glutamine and gentamycin at 37° C. in a humidified incubator with 5% CO2.
A2780 cells were seeded at 20.000 cells per well in a 96 well plate, cultured for 24 hours and treated with compound for 16 hours at 37° C. in a humidified incubator. After incubation, the cells were washed once with phosphate-buffered saline and 30 μl, per well, low salt RIPA buffer (20 mM tris, pH7.0, 0.5 mM EDTA, 1% Nonidet P40, 0.5% DOC, 0.05% SDS, 1 mM PMSF, 1 μg/ml aprotinin and 0.5 μ/ml leupeptin) was added. Plates were placed on ice for 30 minutes to complete the lysis. p53 protein was detected in de lysates by using the sandwich ELISA, described below.
High binding polystyrene EIA/RIA 96 well plates (Costar 9018) were coated with the capture antibody pAb1801 (Abcam ab28-100) at a concentration of 1 μg/ml in coating buffer (0.1 M NaHCO3 pH8.2), 50 μl per well. The antibody was allowed to adhere overnight at 4° C. Coated plates were washed once with phosphate-buffered saline (PBS)/0.05% Tween 20 and 300 μl of blocking buffer (PBS, 1% bovine serum albumins (BSA)) was added, for an incubation period of 2 hours at room temperature. Dilutions of purified recombinant HIS tagged p53 protein, ranging from 3-200 ng/ml, were made in blocking buffer and used as standards.
Plates were washed twice with PBS/0.05% Tween 20 and blocking buffer or standards were added at 80 μl/well. To the standards, 20 μl of lysis buffer was added. The samples were added to the other wells at 20 μl lysate/well. After an overnight incubation at 4° C., plates were washed twice with PBS/0.05% Tween 20. Aliquots of 100 μl secondary polyclonal antibody p53(FL-393) (Tebubio, sc-6243) at a concentration of 1 μg/ml in blocking buffer were added to each well and allowed to adhere for 2 hours at room temperature. Plates were washed three times with PBS/0.05% Tween 20. Detection antibody anti-rabbit HRP (sc-2004, Tebubio) at 0.04 μg/ml in PBS/1% BSA was added and incubated for 1 hour at room temperature. Plates were washed three times with PBS/0.05% Tween 20 and 100 μl of substrate buffer was added (substrate buffer was prepared shortly before use by adding 1 tablet of 10 mg o-phenylene diamine (OPD) from Sigma and 125 μl 3% H2O2 to 25 ml OPD buffer: 35 mM citric acid, 66 mM Na2HPO4, pH5.6). After 5 to 10 minutes, colour reaction was stopped by adding 50 μl stop buffer (1 M H2SO4) per well. The absorbance at dual wavelengths of 490/655 nm was measured using a Biorad micro plate reader and the results were then analyzed.
For each experiment, controls (containing no drug) and a blank incubation (containing no cells or drugs) were run in parallel. The blank value was subtracted from all control and sample values. For each sample, the value of p53 (in absorbance units) was expressed as the percentage of the value for p53 present in the control. […]

[2] = tested on: p53 in U87MG cells; experiment: U87MG p53-elisa as described in EP1809622; format: cell-based; conditions: lowest dose giving at least 140% of the p53 value of the control
[3] = tested on: Male NMRI mice; experiment: Ro-4-1284 antagonism in mice (drug induced neurological effects); format: in vivo; conditions: Ro-4-1284 antagonism in mice
Protocol: The test is a modification of a procedure described by Colpaert et al. (1975).^3 Male NMRI mice (22±3 g) were housed in macrolon observation cages (L×W×H: 11×12×17 cm; n=3 per cage). At the start of the experiments immediately before test compound administration, the initial body temperature of the mice was measured with a precision of 0.1° C. by inserting the thermo-sensitive probe (1.0 mm diameter) of an electric thermometer (Comark) to a constant depth of 3 cm into the esophagus until a stable reading was obtained. The right eye pupil diameter was measured with a graduated microscope and expressed in 1/24 mm units. Fifteen min after test compound administration, the mice were challenged with Ro-4-1284 (10 mg/kg, s.c.). Ro-4-1284 is a reserpine-like vesicular monoamine transport (VMAT-2) inhibitor, which rapidly depletes secretory vesicles.^3,4 Fifteen, 30 and 60 min after challenge, the mice were scored for palpebral opening (0, 1, 2, 3, 4, 5) and locomotor activity (−1, 0, 1, 2, 3). At the 60-min interval, immediately after the scoring of overt behavior, the right eye pupil diameter and the esophageal temperature were measured again. Abnormal phenomena such as intensive sniffing, chewing, rearing, hyperemia, piloerection, salivation, tremors, convulsions and death were noted (the latter phenomena were also noted when occurring before Ro-4-1284 administration). Criteria for drug-induced effects: reversal of ptosis: palpebral opening score >1 at 15, 30 or 60 min (2.7, 0.5 and 0% false positive controls, respectively; n>350); induction of prostration: score −1 for locomotion at 15, 30 or 60 min (never observed in controls); reversal of hypomotility: score >0 for locomotion at 15, 30 and 60 min (2.2, 0.8 and 0% false positive controls, respectively); reversal of miosis: pupil diameter >5 units at 60 min (0.8% false positives); potentiation of hypothermia: temperature decrease (over the 1-h time interval)>9.0° C. (1.4% false positives); reversal of hypothermia: temperature decrease <3.0° C. (1.8% false positives).
According to the standard procedure, R0-4-1284 is injected 15 min following subcutaneous or oral administration and observations start 15 min later. Doses are initially given to 3 animals. When at least 2 out of the 3 animals show activity for at least one of the observations, the compound is considered active.

[4] = Crystallographic stability of Form I (TGA, DSC, XRPD, IR after storage); format: physicochemical; parameters: key to XRD / IR: ~Ref: identical with reference; Cryst.: crystalline
Protocol: The crystallographic stability of Form I of compound No. 1 was studied according to the following procedure:
after storage of the compound in open conditions for a period of six weeks at room temperature (RT) under <5%, 56% and 75% relative humidity (RH), 50° C. and 40° C./75% RH., the samples were analyzed with thermogravimetry (TGA), differential scanning calorimetry (DSC), X-ray powder diffraction (XRPD) and infrared spectroscopy (IR).

[5] = Chemical stability of Form I (HPLC and visual inspection after storage); format: physicochemical
Protocol: The chemical stability of Form I of compound No. 1 was studied according to the following procedure:
Form I was stored in different open conditions for periods of 1, 4 and 8 weeks. These conditions are 40° C./75% RH, 50° C., RT/<5% RH, RT/56% RH, RT/75% RH and 0.3 da ICH light.
The compounds were analyzed after storage by HPLC and by visual inspection.

[6] = Slurry conversion experiment; format: physicochemical; conditions: various solvents, 50° C., 24 hours
Protocol: Concentrated/saturated solutions of compound No. 1 drug substance were prepared at 50° C. in 13 different solvents (water, methanol, ethanol, 2-propanol, acetone, acetonitrile, toluene, tetrahydrofuran, dichloromethane, 2-butanone, ethyl acetate, dimethylformamide, 1-methoxy-2-propanol) to support the automated polymorph screen. […] The slurry solids were retrieved from their solvent systems, dried under an air stream, placed under vacuum at room temperature overnight, and then analyzed for slurry conversion using XRD.

[7] = Physical properties of the solid state forms; format: physicochemical
Protocol: Form I was denoted as a crystalline, non-hygroscopic solid that melts at approximately 192° C. Form II was described as a crystalline solid with a melting point at approximately 186° C.

## Cc1cc(Nc2ccncc2)ccc1NCCc1c[nH]c2ccccc12
[1]
  A2780 p53-elisa LAD: 3.00E-06
[2]
  U87MG p53-elisa LAD: 1.00E-05
[3]
  drug induced neurological side effects: yes

## OC1CCc2c(Nc3ccc(NCCc4c[nH]c5ccccc45)cc3)ccnc21 (stereo not drawn) [drawing 34]
[1]
  A2780 p53-elisa LAD: 3.00E-07
[2]
  U87MG p53-elisa LAD: 1.00E-07
[3]
  drug induced neurological side effects: yes

## Cc1cc(Nc2ccnc3c2CCC3O)ccc1NCCc1c[nH]c2c(C)cccc12 (stereo not drawn) [compound 3]
[1]
  A2780 p53-elisa LAD: 1.00E-07

## OC1CCc2c(Nc3ccc(NCCc4c[nH]c5ccccc45)cc3)ccnc21 (stereo not drawn) [drawing 33]
[1]
  A2780 p53-elisa LAD: 1.00E-07
[2]
  U87MG p53-elisa LAD: 1.00E-06
[3]
  drug induced neurological side effects: yes

## Cc1cc(Nc2ccnc3c2CCC3O)ccc1NCCc1c[nH]c2c(C)cccc12 (stereo not drawn) [Form I]
[4]; 0 days
  App: brown-grey
  DSC Max: 192.1 °C
  DSC ΔH: 122 J/g
  IR: Cryst., Ref
  TGA <175° C.: 0.05%
  TGA <225° C.: 0.19%
  XRD: Cryst., Ref
[4]; open storage six weeks, all conditions
  crystallographic stability: crystallographically stable
[4]; six weeks open, 40° C./75% RH
  App: brown-grey
  DSC Max: 191.7 °C
  DSC ΔH: 123 J/g
  IR: ~Ref
  TGA <175° C.: 0.06%
  TGA <225° C.: 0.19%
  XRD: ~Ref
[4]; six weeks open, 50° C.
  App: brown-grey
  DSC Max: 191.6 °C
  DSC ΔH: 122 J/g
  IR: ~Ref
  TGA <175° C.: 0%
  TGA <225° C.: 0.2%
  XRD: ~Ref
[4]; six weeks open, RT/56% RH
  App: brown-grey
  DSC Max: 191.8 °C
  DSC ΔH: 108 J/g
  IR: ~Ref
  TGA <175° C.: 0.15%
  TGA <225° C.: 0.2%
  XRD: ~Ref
[4]; six weeks open, RT/75 % RH
  App: brown-grey
  DSC Max: 191.7 °C
  DSC ΔH: 112 J/g
  IR: ~Ref
  TGA <175° C.: 0.14%
  TGA <225° C.: 0.25%
  XRD: ~Ref
[4]; six weeks open, RT/<5% RH
  App: brown-grey
  DSC Max: 191.7 °C
  DSC ΔH: 125 J/g
  IR: ~Ref
  TGA <175° C.: 0%
  TGA <225° C.: 0.31%
  XRD: ~Ref
[5]; 0.3da ICH light (1 week)
  Appearance: brown-grey
  HPLC Sum of impurities: 0.18%
[5]; 40° C./75% RH, 1 week
  Appearance: brown-grey
  HPLC Sum of impurities: 0.13%
[5]; 40° C./75% RH, 4 weeks
  Appearance: brown-grey
  HPLC Sum of impurities: 0.14%
[5]; 40° C./75% RH, 8 weeks
  Appearance: brown-grey
  HPLC Sum of impurities: 0.2%
[5]; 50° C., 1 week
  Appearance: brown-grey
  HPLC Sum of impurities: 0.28%
[5]; 50° C., 4 weeks
  Appearance: brown-grey
  HPLC Sum of impurities: 0.14%
[5]; 50° C., 8 weeks
  Appearance: brown-grey
  HPLC Sum of impurities: 0.24%
[5]; RT/56% RH, 4 weeks
  Appearance: brown-grey
  HPLC Sum of impurities: 0.22%
[5]; RT/56% RH, 8 weeks
  Appearance: brown-grey
  HPLC Sum of impurities: 0.24%
[5]; RT/75% RH, 4 weeks
  Appearance: brown-grey
  HPLC Sum of impurities: 0.2%
[5]; RT/75% RH, 8 weeks
  Appearance: brown-grey
  HPLC Sum of impurities: 0.18%
[5]; RT/<5% RH, 4 weeks
  Appearance: brown-grey
  HPLC Sum of impurities: 0.19%
[5]; RT/<5% RH, 8 weeks
  Appearance: brown-grey
  HPLC Sum of impurities: 0.24%
[5]; Reference (1 week)
  Appearance: brown-grey
  HPLC Sum of impurities: 0.23%
[5]; open storage 1, 4 and 8 weeks, all investigated conditions
  chemical stability: chemically stable in all investigated conditions
[6]
  form conversion when slurried: No form conversion was observed
[7]
  hygroscopicity: non-hygroscopic

## c1ccc2c(CCNc3ccc(Nc4ccncc4)cc3)c[nH]c2c1
[1]
  A2780 p53-elisa LAD: 1.00E-06
[2]
  U87MG p53-elisa LAD: 3.00E-06
[3]
  drug induced neurological side effects: yes

## Cc1cccc2c(CCNc3ccc(Nc4ccncc4)cc3)c[nH]c12
[1]
  A2780 p53-elisa LAD: 3.00E-07
[2]
  U87MG p53-elisa LAD: 1.00E-06
[3]
  drug induced neurological side effects: yes

Source: US8853406B2, “Substituted phenylenediamines as inhibitors of the interaction between MDM2 and P53” (Janssen Pharmaceutica NV, priority 2007, dated 2014)
